Data taken from PMC11090880 (Current Research in Microbial Sciences, 2024).

Target: OROV Endo-Nter (N-terminal endonuclease domain of the OROV RNA polymerase, L protein) (Oropouche virus, UniProt A0A0B5CUJ1)
Test: FRET cleavage assay of dual-labelled DNA
Assay type: biochemical

## COc1cc(O)c2c(c1)oc(=O)c1c3cc(O)c(O)cc3oc21 [WDL, 7‑methoxy 5,11,12-trihydroxy-coumestan]
  IC50: 310 ± 8 nM
